# Measured values published in patent publication US9018208B2, “Heterocycles as potassium channel modulators” (Icagen Inc., priority 2007, dated 2015).
# Tested on: SH-SY5Y M-currents (KCNQ2, KCNQ3 and KCNQ5)
# Assay: SH-SY5Y native cell line FLIPR assay (voltage-sensitive dye DiBAC)
# Format: cell-based, mouse neuroblastoma, rat glioma hybrid cell line
# Settings: FLIPR assay, SH-SY5Y native cell line; Table 1; read-out: SH-SY5Y EC50
# Description: SH-SY5Y cells, a mouse neuroblastoma, rat glioma hybrid cell line, functionally express M-currents (Robbins et al., J. Physiol. 451: 159-85 (1992). SH-SY5Y M-currents are likely comprised, at least in part, of KCNQ2, KCNQ3 and KCNQ5, since these genes are reportedly robustly expressed in differentiated SH-SY5Y cells (Selyanko et al., J. Neurosci. 19(18): 7742-56 (1999); Schroeder et al., J. Biol. Chem. 275(31): 24089-95 (2000)) and KCNQ3 dominant-negative constructs reduce M-current density in these cells (Selyanko et al., J. Neurosci. 22(5): RC212 (2002).
# SH-SY5Y were maintained in DMEM (high glucose) supplemented with 10% fetal bovine serum, 0.05 mM pyridoxine, 0.1 mM hypoxanthine, 400 nM aminopterin, […], 50 μgml^−1 gentamycin and 10 mM HEPES, in an incubator at 37° C. with a humidified atmosphere of 5% CO2. Cells were plated in 96 well plates differentiated by addition of 10 μM PGE1 and 50 μM isomethylbutylxanthine to the growth media prior to study.
# Differentiated SH-SY5Y cells were loaded with voltage-sensitive dye by incubation in Earls Balanced Salt Solution (EBSS) containing […] DiBAC for 1 h. Following loading, drug solution containing […] DiBAC was added to each well. Changes in fluorescence were measured every 30 s for 25 min. The maximum change in fluorescence was measured and expressed as a percentage of the maximum response obtained in the presence of a positive control agent.
row,EC50 [nM],Compound
1,< 500,"CC(C)(C)Cc1c(NC(=O)Cc2ccc(C(F)(F)F)cc2)nc2ccc(C(F)(F)F)cn12 [Compound 61, N-(3-neopentyl-6-(trifluoromethyl)imidazo[1,2-a]pyridin-2-yl)-2-(4-(trifluoromethyl)phenyl)acetamide]"
2,< 500,"CC1(CC(=O)Nc2nc3ccc(C(F)(F)F)cn3c2CC2CCCCC2)CCCC1 [Compound 46, N-(3-(cyclohexylmethyl)-6-(trifluoromethyl)imidazo[1,2-a]pyridin-2-yl)-2-(1-methylcyclopentyl)acetamide]"
3,500 to 3000,"O=C(Cc1ccc(F)cc1F)Nc1nc2ccc(C(F)(F)F)cn2c1C1CC1 [Compound 79, N-(3-cyclopropyl-6-(trifluoromethyl)imidazo[1,2-a]pyridin-2-yl)-2-(2,4-difluorophenyl)acetamide]"

# Same assay, conditions: FLIPR assay, SH-SY5Y native cell line; Table 2; read-out: SH-SY5Y EC50
row,Compound,EC50 [nM]
1,"O=C(Nc1nc2ccc(F)cn2c1-c1ccc(C(F)(F)F)cc1)OCc1ccccc1 [Compound 161, benzyl 6-fluoro-3-(4-(trifluoromethyl)phenyl)imidazo[1,2-a]pyridin-2-ylcarbamate]",3000 to 10000
2,"O=C(Cc1ccc(F)cc1)Nc1nc2ncccn2c1-c1cccc(OC(F)(F)F)c1 [Compound 324, 2-(4-fluorophenyl)-N-(3-(3-(trifluoromethoxy)phenyl)imidazo[1,2-a]pyrimidin-2-yl)acetamide]",3000 to 10000
3,"O=C(Cc1ccc(F)cc1Cl)Nc1nc2ccc(F)cn2c1-c1ccc(F)cc1 [Compound 140, 2-(2-chloro-4-fluorophenyl)-N-(6-fluoro-3-(4-fluorophenyl)imidazo[1,2-a]pyridin-2-yl)acetamide]",3000 to 10000
4,"O=C(Cc1ccc(F)cc1)Nc1nc2ncccn2c1-c1cccc(Cl)c1 [Compound 330, N-(3-(3-chlorophenyl)imidazo[1,2-a]pyrimidin-2-yl)-2-(4-fluorophenyl)acetamide]",3000 to 10000
5,"O=C(COc1ccc(Cl)cc1Cl)Nc1nc2ccc(F)cn2c1-c1ccc(OC(F)(F)F)cc1 [Compound 247, 2-(2,4-dichlorophenoxy)-N-(6-fluoro-3-(4-(trifluoromethoxy)phenyl)imidazo[1,2-a]pyridin-2-yl)acetamide]",3000 to 10000

# Continued, values first:
row,EC50 [nM],Compound
1,< 500,"CC(C)C(C)C(=O)Nc1nc2ccc(F)cn2c1-c1cccc(OC(F)(F)F)c1 (centres unmarked) [Compound 278, N-(6-fluoro-3-(3-(trifluoromethoxy)phenyl)imidazo[1,2-a]pyridin-2-yl)-2,3-dimethylbutanamide]"
2,< 500,"CC(C(=O)Nc1nc2ccc(F)cn2c1-c1ccc(OC(F)(F)F)cc1)C(C)(C)C (centres unmarked) [Compound 235, N-(6-fluoro-3-(4-(trifluoromethoxy)phenyl)imidazo[1,2-a]pyridin-2-yl)-2,3,3-trimethylbutanamide]"
3,3000 to 10000,"O=C(Nc1nc2ccc(F)cn2c1-c1ccc(OC(F)(F)F)cc1)[C@H]1CCCO1 [Compound 243, (R)—N-(6-fluoro-3-(4-(trifluoromethoxy)phenyl)imidazo[1,2-a]pyridin-2-yl)tetrahydrofuran-2-carboxamide]"
4,< 500,"CC(CC(=O)Nc1nc2ccc(F)cn2c1-c1cccc(OC(F)(F)F)c1)C(F)(F)F (centres unmarked) [Compound 276, 4,4,4-trifluoro-N-(6-fluoro-3-(3-(trifluoromethoxy)phenyl)imidazo[1,2-a]pyridin-2-yl)-3-methylbutanamide]"
5,< 500,"Cc1ccn2c(-c3ccc(F)cc3)c(NC(=O)CC(C)(C)C)nc2c1 [Compound 169, N-(3-(4-fluorophenyl)-7-methylimidazo[1,2-a]pyridin-2-yl)-3,3-dimethylbutanamide]"
6,500 to 3000,"O=C(Cc1ccc(F)cc1)Nc1nc2ccc(F)cn2c1-c1ccccc1 [Compound 92, N-(6-fluoro-3-phenylimidazo[1,2-a]pyridin-2-yl)-2-(4-fluorophenyl)acetamide]"
7,500 to 3000,"O=C(CC1CCOCC1)Nc1nc2ccc(F)cn2c1-c1ccc(OC(F)(F)F)cc1 [Compound 251, N-(6-fluoro-3-(4-(trifluoromethoxy)phenyl)imidazo[1,2-a]pyridin-2-yl)-2-(tetrahydro-2H-pyran-4-yl)acetamide]"
8,< 500,"CC(C)(C)CC(=O)Nc1nc2ccccn2c1-c1cccc(OC(F)(F)F)c1 [Compound 342, 3,3-dimethyl-N-(3-(3-(trifluoromethoxy)phenyl)imidazo[1,2-a]pyridin-2-yl)butanamide]"
9,500 to 3000,"O=C(CCOc1ccc(F)cc1)Nc1nc2ccc(F)cn2c1-c1ccc(OC(F)(F)F)cc1 [Compound 250, N-(6-fluoro-3-(4-(trifluoromethoxy)phenyl)imidazo[1,2-a]pyridin-2-yl)-3-(4-fluorophenoxy)propanamide]"
10,500 to 3000,CC(CC(=O)Nc1nc2cc(Cl)c(Cl)cn2c1-c1ccc(OC(F)(F)F)cc1)C(F)(F)F (centres unmarked) [Compound 219]
11,500 to 3000,"O=C(CCC1CC1)Nc1nc2ccc(F)cn2c1-c1cccc(C(F)(F)F)c1 [Compound 280, 3-cyclopropyl-N-(6-fluoro-3-(3-(trifluoromethyl)phenyl)imidazo[1,2-a]pyridin-2-yl)propanamide]"
12,500 to 3000,"CC(C)(C#N)CC(=O)Nc1nc2ccc(F)cn2c1-c1ccc(OC(F)(F)F)cc1 [Compound 218, 3-cyano-N-(6-fluoro-3-(4-(trifluoromethoxy)phenyl)imidazo[1,2-a]pyridin-2-yl)-3-methylbutanamide]"
13,500 to 3000,"CC(CC(=O)Nc1nc2ccc(F)cn2c1-c1cc(F)cc(F)c1)C(F)(F)F (centres unmarked) [Compound 230, N-(3-(3,5-difluorophenyl)-6-fluoroimidazo[1,2-a]pyridin-2-yl)-4,4,4-trifluoro-3-methylbutanamide]"
14,500 to 3000,"CC(C)(C)CC(=O)Nc1nc2cc(C(F)(F)F)ccn2c1-c1ccc(F)cc1 [Compound 113, N-(3-(4-fluorophenyl)-7-(trifluoromethyl)imidazo[1,2-a]pyridin-2-yl)-3,3-dimethylbutanamide]"
15,500 to 3000,"O=C(CCC(F)(F)F)Nc1nc2ccc(F)cn2c1-c1ccc(F)cc1 [Compound 108, 4,4,4-trifluoro-N-(6-fluoro-3-(4-fluorophenyl)imidazo[1,2-a]pyridin-2-yl)butanamide]"
16,500 to 3000,"CC(C)(C)CC(=O)Nc1nc2ccc(F)cn2c1-c1ccccc1 [Compound 93, N-(6-fluoro-3-phenylimidazo[1,2-a]pyridin-2-yl)-3,3-dimethylbutanamide]"
17,< 500,"O=C(Cc1ccc(F)cc1)Nc1nc2ccc(F)cn2c1-c1cccc(OC(F)(F)F)c1 [Compound 183, N-(6-fluoro-3-(3-(trifluoromethoxy)phenyl)imidazo[1,2-a]pyridin-2-yl)-2-(4-fluorophenyl) acetamide]"
18,500 to 3000,"O=C(CC1CC1)Nc1nc2ccc(F)cn2c1-c1cccc(C(F)(F)F)c1 [Compound 269, 2-cyclopropyl-N-(6-fluoro-3-(3-(trifluoromethyl)phenyl)imidazo[1,2-a]pyridin-2-yl)acetamide]"
19,< 500,"Cc1ccn2c(-c3ccc(F)cc3)c(NC(=O)Cc3ccccc3)nc2c1 [Compound 168, N-(3-(4-fluorophenyl)-7-methylimidazo[1,2-a]pyridin-2-yl)-2-phenylacetamide]"

# Same assay, conditions: SH-SY5Y native cell line, FLIPR assay (Table 3); read-out: SH-SY5Y EC50
row,EC50 [nM],Compound
1,3000 to 10000,"Cc1ccc2nc(NC(=O)C3CCC(F)(F)CC3)c(-c3cc(C(F)(F)F)ccn3)n2n1 [Compound 397, 4,4-difluoro-N-(6-methyl-3-(4-(trifluoromethyl)pyridin-2-yl)imidazo[1,2-b]pyridazin-2-yl)cyclohexanecarboxamide]"
2,500 to 3000,"O=C(Nc1nc2ccccn2c1-c1cc(C(F)(F)F)ccn1)C1CC1(F)F (centres unmarked) [Compound 413, 2,2-difluoro-N-(3-(4-(trifluoromethyl)pyridin-2-yl)imidazo[1,2-a]pyridin-2-yl)cyclopropanecarboxamide]"
3,< 500,"O=C(Cc1ccc(F)cc1)Nc1nc2ccc(C(F)(F)F)cn2c1-c1cc(C(F)(F)F)ccn1 [Compound 400, 2-(4-fluorophenyl)-N-(6-(trifluoromethyl)-3-(4-(trifluoromethyl)pyridin-2-yl)imidazo[1,2-a]pyridin-2-yl)acetamide]"
4,500 to 3000,"O=C(Cc1ccc(F)cc1)Nc1nc2ccc(F)cn2c1-c1nccs1 [Compound 384, N-(6-fluoro-3-(thiazol-2-yl)imidazo[1,2-a]pyridin-2-yl)-2-(4-fluorophenyl)acetamide]"
5,3000 to 10000,"CC(C)C(C)C(=O)Nc1nc2ccc(F)cn2c1-c1nc2ccccc2s1 (centres unmarked) [Compound 373, N-(3-(benzo[d]thiazol-2-yl)-6-fluoroimidazo[1,2-a]pyridin-2-yl)-2,3-dimethylbutanamide]"
6,3000 to 10000,"CC(CC(=O)Nc1nc2ccccn2c1-c1nccs1)C(F)(F)F (centres unmarked) [Compound 408, 4,4,4-trifluoro-3-methyl-N-(3-(thiazol-2-yl)imidazo[1,2-a]pyridin-2-yl)butanamide]"
7,500 to 3000,"O=C(Nc1nc2ccccn2c1-c1nccs1)C1CCC(F)(F)CC1 [Compound 409, 4,4-difluoro-N-(3-(thiazol-2-yl)imidazo[1,2-a]pyridin-2-yl)cyclohexanecarboxamide]"

# Same assay, conditions: read-out: SH-SY5Y_EC50
row,EC50 [nM],Compound
1,732,"O=C(Cc1ccc(F)cc1)Nc1nc2ccc(F)cn2c1-c1ccccc1 [Compound 92, N-(6-fluoro-3-phenylimidazo[1,2-a]pyridin-2-yl)-2-(4-fluorophenyl)acetamide]"
